Experiment: Solubilization of CoQ-10 in solvent (monoterpenes; prior liquid delivery solvents)
Format: physicochemical
Conditions: without heating or with gentle warming; ambient temperatures
Excerpt: The present invention pertains to the surprising discovery that ubiquinone (CoQ-10) and related analogs thereof can be readily dissolved in varying concentrations in monoterpenes. Generally, until the present discovery, most CoQ-10 liquid delivery methods could solubilize only up to about 5% by weight of the CoQ-10 in the “solvent”. Typical solvents included various oils or the CoQ-10 was held in suspension. The present invention provides the ability to solubilize CoQ-10 in monoterpenes in concentrations of up to about 60% (weight to weight) without the need to aggressively heat the solution or with gentle warming. In particular, the solubilization of the CoQ-10 with monoterpenes can be accomplished at ambient temperatures.
Generally, until the present discovery, most CoQ-10 liquid delivery methods could solubilize only up at most about 10% by weight of the CoQ-10 in the solvent. Typical solvents included oils or the CoQ-10 was held in an aqueous suspension. Alternatively, the CoQ-10 was provided as a solid in a tablet or powder.
The present invention provides the ability to solubilize CoQ-10 and analogs thereof in monoterpenes, as defined herein, in concentrations of up to about 60% (weight to weight) without the need to heat the solution. In one aspect, the monoterpene solubilizes CoQ-10 from about 0.1 percent by weight to about 45 percent by weight. […]

COC1=C(OC)C(=O)C(C/C=C(\C)CC/C=C(\C)CC/C=C(\C)CC/C=C(\C)CC/C=C(\C)CC/C=C(\C)CC/C=C(\C)CC/C=C(\C)CC/C=C(\C)CCC=C(C)C)=C(C)C1=O [CoQ-10]
CoQ-10 solubilized in monoterpenes: up to 60 % (weight to weight)
